The record followed here is US10653693B2, “PRMT5 inhibitors and uses thereof” (Epizyme, Inc., priority 2014, dated 2020).

In test [1] the test system is sDMA methylation in bone marrow (surrogate tissue). The experiment in a line: sDMA Western blot of bone marrow samples from Z-138 efficacy study. In kind it is in vivo. The note with it: bone marrow harvested on day 21. In general terms: A western blot detects proteins with antibodies after separation by electrophoresis.
A further test concerns Mino. The experiment in a line: Long-term proliferation (LTP) assay. In kind it is cell-based. The note with it: Homo sapiens.
Test [2] relates to Granta-519. The experiment in a line: Long-term proliferation (LTP) assay. In kind it is cell-based. The note with it: Homo sapiens.
A further test deals with Z-138. In words: Long-term proliferation (LTP) assay. In kind it is cell-based. The note with it: Homo sapiens. As for the experimental part:
FIG. 4 illustrates a representative sample of a long-term proliferation assay performed in the mantle cell lymphoma cell line Z-138. Assays were performed in technical triplicates, reading cell viability over 14 days. Growth curves (top panel) were calculated in Excel. IC50 (bottom panel) and IC90 (not shown) values were calculated in GraphPad Prism using a non-linear regression analysis, fixing the top and bottom of the curves to 100 and 0%, respectively. The IC50 values in the Table are indicated in microM. [table]

A further test deals with Mino cells. The experiment in a line: Gene expression of apoptotic response genes (real time PCR). The test is classed as cell-based, Human. The note with it: day 4. As for the experimental part:
(§1) The fold change was calculated using the Comparative Ct method ([…]). N=1. A previous RNA Seq study in MCL cell lines using a tool compound with the same cellular potency as Formula B identified expression changes in a number of genes involved in the apoptotic response (unpublished results). These genes included the Bcl-2 family members PUMA and BAX, well characterized drivers of the apoptotic response. Other genes implicated in the apoptotic response were also identified and include PHLDA3, TP53I3, p21, APOBEC3H, TRIM22, and FAS.
For orientation: Quantitative PCR measures a nucleic acid by following its amplification.

Test [3] deals with Granta-519. The description is as above. The test is classed as cell-based, Human. The note with it: day 4. Here is the method: as §1
In the next test the test system is Jeko-1 cells. The description is as above. In kind it is cell-based, Human. Particulars: day 4. As for the experimental part:
as §1

Another test has as its system Z138 cells. In words: Western analysis (sDMA, cleaved Caspase-3, cleaved PARP). In kind it is cell-based, Human. The note with it: 1 μM, 1-5 days. Here is the method: Z138 cells were seeded at approximately […] in IMDM+10% horse serum media. Cells were treated with 1 μM of compound for 1, 2, 3, 4, or 5 days. Cell pellets were collected by centrifuging at 500×g for 5 minutes, washing once with PBS, and freezing at −80° C. until ready to be processed.
Protein lysates were prepared by adding RIPA buffer (Sigma R0278) containing protease inhibitor (about 5× the volume of the cell pellet, or roughly 250 μL) to each cell pellet and pipetting to resuspend. Samples were sonicated with 10×1 second pulses then centrifuged at maximum speed (13,300 RPM) for 6 minutes. Supernatant (200 μL) was transferred to a fresh Eppendorf tube, and pellets were discarded. Protein concentration was determined using a Pierce BCA Protein Assay kit.
Protein gel samples were prepared by combining 20 μg of lysate with appropriate volumes of Life Technologies NuPage Sample Reducing Agent, LDS Sample Buffer, and RIPA buffer. Gel samples were heated for 5-10 minutes at 100° C. in a heat block. A 15-well Invitrogen 4-12% Bis-Tris NuPAGE-SDS gel was loaded with a volume of 19 μL per well, and run in MES SDS buffer at 150V for about 1 hour or until maximal separation of bands was achieved.
Gels were transferred onto nitrocellulose membranes using an Invitrogen iBlot system. […]

In test [4] the test system is Z-138 cells overexpressing full length (FL) MDM4. The experiment in a line: Cell cycle analysis of transduced Z138 cell lines. The test is classed as cell-based, Human. Particulars: 50 nM or 500 nM; 2, 3, or 4 days. Here is the method:
1×10^6 Z138 cells were seeded in a 6-well tissue culture dish in a volume of 3 mL IMDM+10% horse serum per well. Lentiviruses (MDM4 or EGFP in pLEX vector) were prepared as previously described or purchased from Santa Cruz Biotechnology (cat. # sc-29435-V and sc-108080 for p53 shRNA or scrambled shRNA lentiviruses, respectively). Lentiviral particles were added to seeded cells at […] and supplemented with polybrene at 8 μg/mL. 6-well plates were sealed with Parafilm and spun at 1000×g for 90 minutes at 37° C. for lentiviral treatment. The contents of each well were then collected into separate 15 mL conical tubes and spun at 1000×g for 5 minutes. Supernatant (containing lentivirus and polybrene) was discarded and the cell pellet was resuspended in 3 mL of IMDM+10% horse serum. […]
Transduction efficiency was evaluated for EGFP-transduced cells using fluorescence microscopy. […]
Cells were seeded at 250,000 cells/well in 6-well tissue culture dishes in a volume of 3 mL IMDM+10% horse serum (supplemented with 0.5 μg/mL puromycin for transduced cell lines). […] Pellets were frozen at −80° C. until ready to process. […]
Samples were processed by FACS on a Becton Dickinson FACSCalibur machine. The percentage of cells in each cell cycle stage was determined using the cell cycle function on the gated single cell population with FlowJo V10 software.

Where [5] appears, read: 264 h, 11-day treatment, N = 1, read-out: Formula B LTP IC50.
The mark [6] stands for this setting: 264 h, 11-day treatment, N = 1, read-out: Formula B LTP IC90.

Like-named read-outs stand apart in the source and are kept apart here.

On to `CC(=O)N1CCC(Nc2cc(C(=O)NC[C@H](O)CN3CCc4ccccc4C3)ccn2)CC1` [Formula B], for which the “levels of sDMA methylation in bone marrow” value in test [1] was “More of a dose-dependent response”. The IC50 stood at 119 nM with Mino (setting [5]); 64.6 nM in the test with Mino (Table 3, read-out: LTP IC50); 12 nM in the test with Granta-519 [2] (setting [5]); 6 nM with Granta-519 [2] (Table 3, read-out: LTP IC50); 3 nM in the test on Z-138 (setting [5]); 2 nM in the test on Z-138 (Table 3, read-out: LTP IC50). Further, the IC90 with Mino (setting [6]) was 611 nM; in the test with Granta-519 [2] (setting [6]), 77 nM; in the test on Z-138 (setting [6]), 20 nM. Also, the “effects in any of the genes tested” value in the test on Mino cells and in the test on Jeko-1 cells was “did not show any significant effects” each time. For the same compound, the “gene expression for p21, TRIM22, and FAS” value in the test with Granta-519 [3] is listed as “only modest increases”. For the same compound, the “increase in the gene PHLDA3” value with Granta-519 [3] is on record as at most 10 fold.
Take `O=C(NC[C@H](O)CN1CCc2ccccc2C1)c1ccnc(NC2CCC2)c1` [Formula C]: in the test with Z138 cells, the “cell death pathways (cleaved Caspase-3 and cleaved PARP) by Western” value is “induction of cell death pathways”; the “inhibition of PRMT5 (sDMA, symmetric dimethylarginine) by Western” value was “time-dependent inhibition”. For the same compound, in [4], the “sensitivity of cells overexpressing full length (FL) MDM4 to PRMT5 inhibition” value is listed as “less sensitive”.

The term IC50 denotes the concentration needed to halve the response being measured. For orientation: IC90 means the concentration needed for an effect of 90%.
